Common to all, as to format: cell-based
The target of experiment [1] is T1, hGIPR (Homo sapiens, UniProt P48546).
T1 sequence (P48546 22-466): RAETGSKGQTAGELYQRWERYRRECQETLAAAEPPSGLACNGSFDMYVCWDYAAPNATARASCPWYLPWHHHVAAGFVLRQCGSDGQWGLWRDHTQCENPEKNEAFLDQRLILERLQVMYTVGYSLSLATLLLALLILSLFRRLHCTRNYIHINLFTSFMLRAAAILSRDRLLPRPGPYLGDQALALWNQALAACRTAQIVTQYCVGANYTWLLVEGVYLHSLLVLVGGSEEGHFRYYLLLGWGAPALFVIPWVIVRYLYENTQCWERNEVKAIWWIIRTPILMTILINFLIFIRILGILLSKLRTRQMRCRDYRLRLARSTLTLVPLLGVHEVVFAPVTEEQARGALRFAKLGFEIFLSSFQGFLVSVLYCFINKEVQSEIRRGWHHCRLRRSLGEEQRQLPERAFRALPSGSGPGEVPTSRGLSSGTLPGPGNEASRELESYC
Put plainly: Functional cAMP activation in the presence of 0.1% casein (no HSA). The following applies: read-out: Relative cAMP EC50, hGIPR.

For experiment [2], the target named is hGcgR (Homo sapiens, UniProt P47871). Described as above. The conditions noted are these: read-out: Relative cAMP EC50, hGcgR.
The target of experiment [3] is human GcgR (Homo sapiens, UniProt P47871). Put plainly: Functional cAMP activity in the presence of 1% HSA. The conditions noted are these: read-out: cAMP Rel EC50, hGcgR.
In experiment [4] the target is T2, hGLP-1R (Homo sapiens, UniProt P43220). Put plainly: Functional cAMP activity in the presence of 1% HSA. The following applies: read-out: cAMP Rel EC50, hGLP-1R.
Experiment [5] addresses T1, hGIPR. Put plainly: Functional cAMP activity in the presence of 1% HSA. The following applies: read-out: cAMP Rel EC50, hGIPR.
Experiment [6] deals with T2, hGLP-1R. Put plainly: Functional cAMP activation in the presence of 0.1% casein (no HSA). The conditions noted are these: read-out: Relative cAMP EC50, hGLP-1R.
The mark [7] stands for this setting: 0.1% casein, no HSA, geometric mean.
Setting [8] is: in the presence of 0.1% casein (no HSA), geometric mean.

Read-outs that look alike come from different tables or passages of the source. Starred links: 1 amine or outer side, 2 acyl side, 3 side chain; linkers in the order of their positions; H or OH if unused. Non-standard residues stand in square brackets, D forms with d. Residues, ends and D or L forms follow the SMILES beside them. Groups on a side chain read outwards from the residue. No end group written: not given here. *: point of attachment. C18 diacid = O=C(O)CCCCCCCCCCCCCCCCC(=O)*; αMePhe(2-F) = C[C@](N)(Cc1ccccc1F)C(=O)O; γGlu = O=C(O)[C@H](CCC(=O)[*:2])N[*:1]; αMe4Pal = C[C@](N)(Cc1ccncc1)C(=O)O; αMeY = C[C@](N)(Cc1ccc(O)cc1)C(=O)O; 4Pal = N[C@@H](Cc1ccncc1)C(=O)O; αMeL = CC(C)C[C@](C)(N)C(=O)O; αMeS = C[C@](N)(CO)C(=O)O; Orn = NCCC[C@H](N)C(=O)O; AEEA = NCCOCCOCC(=O)O; Aib = CC(C)(N)C(=O)O
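For Relative cAMP EC50, hGIPR in this document: intracellular cAMP rise after 30 min at 37 °C read by HTRF against a standard curve, scaled between buffer alone (0%) and top control ligand concentration (100%), four-parameter fit.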
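For Relative cAMP EC50, hGLP-1R in this document: intracellular cAMP rise after 30 min at 37 °C read by HTRF, normalized between buffer only (0%) and maximal control ligand (100%), four-parameter variable-slope fit.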
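For Relative cAMP EC50, hGcgR in this document: intracellular cAMP rise after 30 min at 37 °C, read by HTRF against a cAMP standard curve, scaled from buffer only (0%) to maximal control ligand response (100%).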

human GcgR, sequence (P47871 26-477): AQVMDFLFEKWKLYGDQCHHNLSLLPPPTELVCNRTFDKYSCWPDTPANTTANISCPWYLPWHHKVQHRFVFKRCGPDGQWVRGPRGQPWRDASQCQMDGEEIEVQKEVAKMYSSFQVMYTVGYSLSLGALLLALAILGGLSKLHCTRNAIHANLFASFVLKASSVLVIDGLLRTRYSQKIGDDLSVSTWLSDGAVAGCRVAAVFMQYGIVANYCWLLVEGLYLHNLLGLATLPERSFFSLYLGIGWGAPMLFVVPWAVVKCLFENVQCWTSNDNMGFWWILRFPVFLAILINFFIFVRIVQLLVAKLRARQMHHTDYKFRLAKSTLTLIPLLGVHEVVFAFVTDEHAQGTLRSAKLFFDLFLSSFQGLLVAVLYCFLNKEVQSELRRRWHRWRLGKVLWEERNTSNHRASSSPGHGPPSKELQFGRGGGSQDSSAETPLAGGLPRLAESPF
hGcgR, sequence (P47871 26-477): as above
T2 sequence (P43220 24-463): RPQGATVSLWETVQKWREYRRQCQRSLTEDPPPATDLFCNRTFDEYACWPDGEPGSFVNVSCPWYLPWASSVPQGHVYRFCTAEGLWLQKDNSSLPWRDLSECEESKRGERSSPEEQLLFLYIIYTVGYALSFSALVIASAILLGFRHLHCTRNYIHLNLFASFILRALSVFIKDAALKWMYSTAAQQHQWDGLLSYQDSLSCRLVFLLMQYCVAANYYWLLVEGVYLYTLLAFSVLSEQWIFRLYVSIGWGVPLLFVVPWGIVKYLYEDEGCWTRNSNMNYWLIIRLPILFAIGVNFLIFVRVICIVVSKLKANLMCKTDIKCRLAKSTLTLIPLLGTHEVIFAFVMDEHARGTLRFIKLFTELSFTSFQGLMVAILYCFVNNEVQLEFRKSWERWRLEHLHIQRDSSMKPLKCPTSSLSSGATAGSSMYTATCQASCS

On to `CC[C@H](C)[C@H](NC(=O)[C@H](Cc1ccccc1)NC(=O)[C@H](CCCN)NC(=O)C(C)(C)NC(=O)[C@H](CCC(N)=O)NC(=O)[C@H](C)NC(=O)[C@H](CCCCNC(=O)COCCOCCNC(=O)COCCOCCNC(=O)CC[C@H](NC(=O)CCCCCCCCCCCCCCCCC(=O)O)C(=O)O)NC(=O)[C@H](CCCN)NC(=O)[C@H](CC(=O)O)NC(=O)[C@H](CC(C)C)NC(=O)[C@](C)(CC(C)C)NC(=O)[C@@H](NC(=O)[C@](C)(CO)NC(=O)[C@H](Cc1ccc(O)cc1)NC(=O)[C@H](CC(=O)O)NC(=O)[C@H](CO)NC(=O)[C@@H](NC(=O)[C@](C)(Cc1ccccc1F)NC(=O)[C@@H](NC(=O)CNC(=O)[C@H](CCC(N)=O)NC(=O)C(C)(C)NC(=O)[C@@H](N)Cc1ccc(O)cc1)[C@@H](C)O)[C@@H](C)O)[C@@H](C)CC)C(=O)N[C@H](CCC(=O)O)C(=O)N[C@@](C)(Cc1ccc(O)cc1)C(=O)N[C@@H](CC(C)C)C(=O)N[C@@H](CCC(=O)O)C(=O)N[C@@H](CCC(=O)O)C(=O)NCC(=O)NCC(=O)N1CCC[C@H]1C(=O)N[C@@H](CO)C(=O)N[C@@H](CO)C(=O)NCC(=O)N[C@@H](CCC(=O)O)C(=O)N1CCC[C@H]1C(=O)N1CCC[C@H]1C(=O)N1CCC[C@H]1C(=O)N[C@@H](CCC(=O)O)C(N)=O` [Example 402] (H-Y[Aib]QGT[αMePhe(2-F)]TSDY[αMeS]I[αMeL]LD[Orn]K([AEEA-AEEA-γGlu-C18 diacid])AQ[Aib][Orn]FI[dE][αMeY]LEEGGPSSGEPPPE-NH2; N-terminus assumed), for which the 50% effective concentration (EC50) in experiment [1] was determined as 0.123 nM; in experiment [2], 5.66 nM; in experiment [3], 1030 nM; in experiment [4] it was 86.6 nM; in experiment [5] it was 44.9 nM; in experiment [6] it was 0.725 nM.

“Y[Aib]QGT[αMePhe(2-F)]TSD[4Pal][αMeS]ILLD[Orn]K([γGlu-γGlu-C18 diacid])AQ[Aib][Orn]FI[dE]YLIEGGPSSGEPPPEGGEE-NH2 [Example 605]”: the EC50 in experiment [1] stood at 0.132 nM; in experiment [2] it was 5.49 nM; in experiment [3], 353 nM; in experiment [4], 56.2 nM; in experiment [5], 6.69 nM; in experiment [6], 0.795 nM.

With “H-Y[Aib]QGT[αMePhe(2-F)]TSD[4Pal][αMeS]I[αMeL]LD[Orn]K([γGlu-γGlu-C18 diacid])AQ[αMe4Pal]EFI[dE][αMeY]LIEGGPPS[Aib][Orn]PPP[Orn]SE-NH2 [Example 1228]”, the EC50 was found to be 0.0067 nM in experiment [1] (setting [7]); 1.98 nM in experiment [2] (setting [7]); 185 nM in experiment [3]; 39.1 nM in experiment [4]; 0.522 nM in experiment [5]; 0.379 nM in experiment [6] (setting [7]).

For the compound “Y[Aib]QGT[αMePhe(2-F)]TSD[4Pal][αMeS]I[αMeL]LD[Orn]QAQ[αMe4Pal]EFI[dE][αMeY]LIEGGPSSGAPPPSGGGE-NH2 [Example 1234]”, the EC50 in experiment [1] (setting [7]) turned out to be 0.0135 nM; in experiment [2] (setting [7]) it was 11.6 nM; in experiment [3], 11.7 nM; in experiment [4] it was 1.15 nM; in experiment [5], 0.011 nM; in experiment [6] (setting [7]), 1.17 nM.

Consider “H-Y[Aib]QGTFTSD[4Pal]S[Orn][αMeL]LDKK([γGlu-γGlu-C18 diacid])AQ[αMe4Pal]AFIEYLIAGGPSSGEPPPSGTEEE-NH2 [Example 982]”, for which the EC50 in experiment [1] (setting [8]) turned out to be 0.328 nM; in experiment [2] (setting [8]), 3.91 nM; in experiment [3] it was 307 nM; in experiment [4], 310 nM; in experiment [5], 19.4 nM; in experiment [6] (setting [8]), 4.94 nM.

With “Y[Aib]Q[dA]T[αMePhe(2-F)]TSD[4Pal][αMeS]I[αMeL]LD[Orn]K([AEEA-γGlu-C18 diacid])AQ[Aib]EFI[dE][αMeY]LIEGGPSSGAPPPSGS-NH2 [Example 1203]”, the EC50 is 0.0774 nM in experiment [1] (setting [7]); 2.58 nM in experiment [2] (setting [7]); 436 nM in experiment [3]; 38.9 nM in experiment [4]; 8.5 nM in experiment [5]; 0.292 nM in experiment [6] (setting [7]).

On to “H-Y[Aib]QGTFTSD[4Pal]SR[αMeL]LDKK([AEEA-AEEA-γGlu-C18 diacid])AQ[αMe4Pal]AFIEYLIE[Aib]GPSSGAPPPSGS-NH2 [Example 815]”, for which the EC50 was found to be 0.181 nM in experiment [1] (setting [8]); 4.13 nM in experiment [2] (setting [8]); 798 nM in experiment [3]; 342 nM in experiment [4]; 17.9 nM in experiment [5]; 2.79 nM in experiment [6] (setting [8]).

In the case of “H-Y[Aib]QGT[αMePhe(2-F)]TSD[4Pal]SI[αMeL]LD[Orn]K([AEEA-γGlu-C18 diacid])AQ[αMe4Pal]EFI[dE][αMeY]LLEGGPSSGAPPPSGS-NH2 [Example 641]”, the EC50 in experiment [1] was found to be 0.00819 nM; in experiment [2], 3.72 nM; in experiment [3] it was 451 nM; in experiment [4] it was 68.3 nM; in experiment [5], 0.832 nM; in experiment [6] it was 0.489 nM.

As for “H-Y[Aib]QGTFTSD[4Pal]SQ[αMeL]LDKK([Glu-Glu-γGlu-C18 diacid])AQ[αMe4Pal]AFIEYLIAGGPSSGAPPPSGE-NH2 [Example 1087]”, the EC50 in experiment [1] (setting [8]) was found to be 0.207 nM; in experiment [2] (setting [8]) it was 15.4 nM; in experiment [3], 2460 nM; in experiment [4], 439 nM; in experiment [5], 23.3 nM; in experiment [6] (setting [8]) it was 2.63 nM.

For “H-Y[Aib]QGT[αMePhe(2-F)]TSD[4Pal][αMeS]I[αMeL]LD[Orn]K([γGlu-γGlu-C18 diacid])AQ[αMe4Pal]EFI[dE][αMeY]LVEGGPSSGEPPPSGGGE-NH2 [Example 739]”, the EC50 amounted to 0.015 nM in experiment [1]; 1.59 nM in experiment [2]; 155 nM in experiment [3]; 27.1 nM in experiment [4]; 0.507 nM in experiment [5]; 0.348 nM in experiment [6].

As to “Y[Aib]QGTFTSD[4Pal]SQ[αMeL]LD[Orn]K([dE-γGlu-C18 diacid])AQ[αMe4Pal]QFIE[αMeY]LIA[Aib]GPSSGEPPPSGSEE-NH2 [Example 1106]”, the concentration for a half-maximal effect (EC50) was 0.0312 nM in experiment [1] (setting [8]); 7.71 nM in experiment [2] (setting [8]); 1030 nM in experiment [3]; 119 nM in experiment [4]; 4.23 nM in experiment [5]; 0.87 nM in experiment [6] (setting [8]).

Take `CC[C@H](C)[C@H](NC(=O)[C@H](CO)NC(=O)[C@H](Cc1ccc(O)cc1)NC(=O)[C@H](CC(=O)O)NC(=O)[C@H](CO)NC(=O)[C@@H](NC(=O)[C@](C)(Cc1ccccc1F)NC(=O)[C@@H](NC(=O)CNC(=O)[C@H](CCC(N)=O)NC(=O)C(C)(C)NC(=O)[C@@H](N)Cc1ccc(O)cc1)[C@@H](C)O)[C@@H](C)O)C(=O)N[C@@H](CC(C)C)C(=O)N[C@@H](CC(C)C)C(=O)N[C@@H](CC(=O)O)C(=O)N[C@@H](CCCN)C(=O)N[C@@H](CCCCNC(=O)CC[C@H](NC(=O)CC[C@H](NC(=O)CCCCCCCCCCCCCCCCC(=O)O)C(=O)O)C(=O)O)C(=O)N[C@@H](C)C(=O)N[C@@H](CCC(N)=O)C(=O)NC(C)(C)C(=O)N[C@@H](C)C(=O)N[C@@H](Cc1ccccc1)C(=O)N[C@H](C(=O)N[C@H](CCC(=O)O)C(=O)N[C@@H](Cc1ccc(O)cc1)C(=O)N[C@@H](CC(C)C)C(=O)N[C@@H](CC(C)C)C(=O)N[C@@H](CCC(=O)O)C(=O)NCC(=O)NCC(=O)N1CCC[C@H]1C(=O)N[C@@H](CO)C(=O)N[C@@H](CO)C(=O)NCC(=O)N[C@@H](C)C(=O)N1CCC[C@H]1C(=O)N1CCC[C@H]1C(=O)N1CCC[C@H]1C(=O)N[C@@H](CO)C(N)=O)[C@@H](C)CC` [Example 428]: the EC50 in experiment [1] was determined as 0.01 nM; in experiment [2], 2.35 nM; in experiment [3] it was 536 nM; in experiment [4], 38.2 nM; in experiment [5], 4.55 nM; in experiment [6] it was 0.207 nM.

The record behind these values is patent US20240270821A1, “GIP/GLP1/GCG TRI-RECEPTOR AGONISTS AND USES THEREOF” (priority 2023, published 2024).
